Reference: patent US8633251B2, “Derivatives of aminoalkanols, method of obtaining of aminoalkanols and their use” (Uniwersytet Jagiellonski, priority 2008, dated 2014)
Structures can show the parent of a compound that is named as a salt. Where two headings read alike, the source gives them in different places.

Assays:
[1] = system: neurotoxicity (rotarod); test: Neurotoxicity test (TOX), rotarod, mice; format: in vivo
[2] = system: maximal electroshock seizures; test: Maximum Electroshock Seizure (MES) test, rats; format: in vivo; conditions: 0.25 h
Procedure: In order to define anticonvulsant activity, screening tests were performed, using animal models of seizures. […] The tests were based on administration of a compound to an animal and after certain time inducing state similar to epilepsy attack in human. Each substance (after dissolving in methylcellulose) was normally tested in doses 30, 100, and 300 mg/kg body weight (b.w.) (mice) or in 30 and 50 mg/kg b.w. (rats) in two possible routes of administration: intraperitoneal (i.p.) or oral (p.o.). […] […] (mice) the tests were also performed in doses 10 and 3 mg/kg b.w.
Maximum Electroshock Seizure (MES) test is an electric test, verifying activity towards generalized tonic-clonic seizures (grand mal epilepsy). […] Its procedure consists in administration to an animal a mentioned dose, […] (after anesthetic eye-drops: 0.5% tetracaine hydrochloride in 0.9% NaCl) and turning on electric current (60 Hz, 0.2 s, 50 mA (mice) or 150 mA (rats)). […]

[3] = system: maximal electroshock seizures; test: Maximum Electroshock Seizure (MES) test, mice; format: in vivo; conditions: mice; for responders at 30 mg/kg / responders at 100 mg/kg / responders at 300 mg/kg: Mus musculus; for responders at 30 mg/kg / responders at 300 mg/kg: read-out: MES, No. of protected animals/No. of used animals; for responders at 100 mg/kg: read-out: MES, No. of protected animals/No. of used animals (converted)
Procedure, shortened: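 Mice received compound in methylcellulose i.p. or p.o. at 30, 100 and 300 mg/kg, with some tests at 10 and 3 mg/kg. At 0.5 or 4 h, after tetracaine eye-drops, current was delivered through corneal electrodes (60 Hz, 0.2 s, 50 mA). Groups were one mouse at 30 and 300 mg/kg and three at 100 mg/kg.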

[4] = system: pilocarpine induced status epilepticus; test: Status epilepticus prevention (pilocarpine), rats; format: in vivo, Sprague Dawley albino rat; conditions: i.p.
Procedure: Status epilepticus prevention—an animal (Sprague Dawley albino rat male) is given a dose of tested substance. After 0, 0.25, 0.5, 1, 2, and 4 h pilocarpine is administered. The seizures induced are described by Racine's score. Compounds 27 and 28 were administered i.p. in doses 25 and 45 mg/kg b.w. respectively. […] Average body weight loss is measured 24 h after administration.

[5] = system: pentylenetetrazol-induced seizures; test: Subcutaneous Metrazol Test (ScMet), mice; format: in vivo
Procedure: In order to define anticonvulsant activity, screening tests were performed, using animal models of seizures. […] The tests were based on administration of a compound to an animal and after certain time inducing state similar to epilepsy attack in human. Each substance (after dissolving in methylcellulose) was normally tested in doses 30, 100, and 300 mg/kg body weight (b.w.) (mice) or in 30 and 50 mg/kg b.w. (rats) in two possible routes of administration: intraperitoneal (i.p.) or oral (p.o.). Appropriate tests were performed 0.5 and 4 h after administration of the compound. […] (mice) the tests were also performed in doses 10 and 3 mg/kg b.w.
Subcutaneous Metrazol Test (ScMet) is a chemical test, where compounds are tested for activity in absence seizures (petit mal epilepsy). Pentetrazol (metrazol) is considered to block chloride channel in the GABAA receptor complex, therefore at a certain dose in animals it causes myoclonic jerks, next—clonic seizures, and then tonic seizures. The procedure consists in administration of a tested compound and after 0.5 or 4 h subcutaneous administration of pentylenetetrazol in the dose of 85 mg/kg b.w. (mice) or 70 mg/kg b.w. (rats) in a 0.85% solution in 0.9% NaCl. […] Normally the test is performed in single animals.

[6] = mice, dose 100 mg/kg b.w., time 0.5 h
[7] = mice, dose 300 mg/kg b.w., time 0.5 h
[8] = mice, dose 100 mg/kg b.w., time 4 h
[9] = dose 100 mg/kg b.w., time 0.5 h
[10] = mice, dose 100 mg/kg b.w., 0.5 h
[11] = mice, dose 300 mg/kg b.w., 0.5 h

Cc1cccc(C)c1OCCNCCCCCO (as salt: hydrochloride) [Compound 17, 5N-[(2,6-dimethylphenoxy)ethyl]amino-1-pentanol hydrochloride]
melting point: 138 to 140 °C

Cc1cccc(C)c1OCCN[C@@H](C)CO [Compound 13, S-(+)-2N-[(2,6-dimethylphenoxy)ethyl]amino-1-propanol]
TOX, No. of animals exhibiting motor impairment/no. of used animals ([1]; mouse, in vivo, 100 mg/kg): 8/8
TOX, No. of animals exhibiting motor impairment/no. of used animals ([1]; mouse, in vivo, 300 mg/kg): 4/4
ED50 (MES, rats, i.p., 0.25 h) ([2]; i.p.): 6.50 mg/kg b.w.
MES, No. of protected animals/No. of used animals ([3]; dose 10 mg/kg b.w., time 0.5 h): 2/4
MES, No. of protected animals/No. of used animals ([3]; dose 30 mg/kg b.w., time 0.5 h): 1/1
ED50 (MES, mice, i.p., 0.25 h) ([3]; i.p., 0.25 h): 8.59 mg/kg b.w.

Cc1cccc(C)c1OCCNC[C@H](O)c1ccccc1 [Compound 20, R-(−)-2N-[(2,6-dimethylphenoxy)ethyl]amino-1-phenylethanol]
TOX, No. of animals exhibiting motor impairment/no. of used animals [1, 6]: 8/8
TOX, No. of animals exhibiting motor impairment/no. of used animals [1, 7]: 4/4
responders at 30 mg/kg ([3]; dose 30 mg/kg b.w., time 0.5 h): 100%
melting point: 78 to 80 °C

CCC(NC(=O)COc1c(C)cccc1C)C(N)=O (racemic) [Compound 66, D,L-2N-[(2,6-dimethylphenoxy)acetyl]aminobutyramide]
melting point: 182 to 184 °C

Cc1cccc(C)c1OCCNC[C@@H](C)O [Compound 10, R-(−)-1N-[(2,6-dimethylphenoxy)ethyl]amino-2-propanol]
TOX, No. of animals exhibiting motor impairment/no. of used animals ([1]; mice, dose 30 mg/kg b.w., time 0.5 h): 1/4
TOX, No. of animals exhibiting motor impairment/no. of used animals [1, 6]: 8/8
TOX, No. of animals exhibiting motor impairment/no. of used animals [1, 8]: 1/3
TOX, No. of animals exhibiting motor impairment/no. of used animals [1, 7]: 4/4
responders at 30 mg/kg ([3]; dose 30 mg/kg b.w., time 0.5 h): 100%
responders at 100 mg/kg ([3]; dose 100 mg/kg b.w., time 4 h): 100%
melting point: 76 to 77 °C

CC[C@H](CO)NCCOc1c(C)cccc1Cl [Compound 27, R-(−)-2N-[(2-chlor-6-methylphenoxy)ethyl]amino-1-butanol]
TOX, No. of animals exhibiting motor impairment/no. of used animals [1, 6]: 8/8
TOX, No. of animals exhibiting motor impairment/no. of used animals [1, 7]: 4/4
Average weight loss ± S.E.M. ([4]; body weight loss 24 h after administration, 25 (27) or 45 (28) mg/kg b.w.): 8.3 ± 7.1
protection in status epilepticus prevention ([4]; 25 (27) and 45 (28) mg/kg b.w.): 2 rats out of 8
Protection ([4]; rats protected/tested, time 0 h, dose 25 (27) or 45 (28) mg/kg b.w.): 2/8
MES, No. of protected animals/No. of used animals ([3]; dose 30 mg/kg b.w., time 0.5 h): 1/1
MES, No. of protected animals/No. of used animals [3, 9]: 1/1

Cc1cccc(C)c1OCCNC(C)CO (stereo not shown) [Compound 11, R,S-2N-[(2,6-dimethylphenoxy)ethyl]amino-1-propanol]
TOX, No. of animals exhibiting motor impairment/no. of used animals ([1]; mouse, in vivo, 30 mg/kg): 2/4
TOX, No. of animals exhibiting motor impairment/no. of used animals ([1]; mouse, in vivo, 100 mg/kg): 8/8
TOX, No. of animals exhibiting motor impairment/no. of used animals ([1]; mouse, in vivo, 300 mg/kg): 4/4
ED50 (MES, rats, p.o., 0.25 h) ([2]; p.o.): 47.03 mg/kg b.w.
MES, No. of protected animals/No. of used animals ([3]; dose 30 mg/kg b.w., time 0.5 h): 1/1

Cc1cccc(C)c1OCCCN[C@H](C)CO (as salt: hydrochloride) [Compound 52, R-(−)-2N-[(2,6-dimethylphenoxy)propyl]amino-1-propanol hydrochloride]
melting point: 119 to 120 °C

Cc1cccc(C)c1OCC(=O)N[C@H]1CC[C@H](O)CC1 [Compound 64, trans-4N-[(2,6-dimethylphenoxy)acetyl]amino-1-cyclohexanol]
TOX, No. of animals exhibiting motor impairment/no. of used animals [1, 10]: 7/8
TOX, No. of animals exhibiting motor impairment/no. of used animals [1, 11]: 4/4
responders at 300 mg/kg ([5]; Mus musculus, sc, dose 300 mg/kg b.w., 0.5 h, read-out: ScMet, No. of protected animals/No. of used animals): 100%
responders at 100 mg/kg ([3]; dose 100 mg/kg b.w., 0.5 h): 100%
responders at 300 mg/kg ([3]; dose 300 mg/kg b.w., 0.5 h): 100%
melting point: 161 to 162 °C

Cc1cccc(C)c1OCCN[C@H](CO)C(C)C (as salt: hydrochloride) [Compound 16, L-2N-[(2,6-dimethylphenoxy)ethyl]amino-3-methyl-1-butanol hydrochloride]
melting point: 162 to 164 °C

Cc1cccc(C)c1OCCNC(C)(C)CCO (as salt: hydrochloride) [Compound 15, 3N-[(2,6-dimethylphenoxy)ethyl]amino-3-methyl-1-butanol hydrochloride]
melting point: 170 to 172 °C

Cc1cccc(C)c1OCC(=O)N[C@H](C)C(N)=O [Compound 65, D-2N-[(2,6-dimethylphenoxy)acetyl]aminopropionamide]
TOX, No. of animals exhibiting motor impairment/no. of used animals [1, 10]: 2/8
TOX, No. of animals exhibiting motor impairment/no. of used animals [1, 11]: 1/4
responders at 30 mg/kg ([5]; Mus musculus, sc, dose 30 mg/kg b.w., 4 h, read-out: ScMet, No. of protected animals/No. of used animals (converted)): 20%
responders at 300 mg/kg ([3]; dose 300 mg/kg b.w., 0.5 h): 100%
melting point: 177 to 178 °C

Cc1cccc(OCCCNC(C)(C)CO)c1C [Compound 47, 2N-[(2,3-dimethylphenoxy)propyl]amino-2-methyl-1-propanol]
TOX, No. of animals exhibiting motor impairment/no. of used animals [1, 6]: 8/8
TOX, No. of animals exhibiting motor impairment/no. of used animals [1, 8]: 4/4
TOX, No. of animals exhibiting motor impairment/no. of used animals [1, 7]: 4/4
responders at 100 mg/kg [3, 9]: 100%
melting point: 128 to 130 °C

Cc1cccc(C)c1OCCCNC(C)(C)CO [Compound 53, 2N-[(2,6-dimethylphenoxy)propyl]amino-2-methyl-1-propanol]
TOX, No. of animals exhibiting motor impairment/no. of used animals ([1]; mice, dose 30 mg/kg b.w., 0.5 h): 1/4
TOX, No. of animals exhibiting motor impairment/no. of used animals [1, 10]: 8/8
TOX, No. of animals exhibiting motor impairment/no. of used animals [1, 11]: 4/4
responders at 100 mg/kg ([3]; dose 100 mg/kg b.w., 0.5 h): 100%
melting point: 73 to 75 °C

CCC(CO)NC(=O)COc1c(C)cccc1Cl (stereo not shown) [Compound 73, R,S-2N-[(2-chlor-6-methylphenoxy)acetyl]amino-1-butanol]
TOX, No. of animals exhibiting motor impairment/no. of used animals [1, 11]: 4/4
ScMet, No. of protected animals/No. of used animals ([5]; dose 100 mg/kg b.w., 0.5 h): 3/5
ScMet, No. of protected animals/No. of used animals ([5]; dose 300 mg/kg b.w., 0.5 h): 1/1
MES, No. of protected animals/No. of used animals ([3]; dose 300 mg/kg b.w., 0.5 h): 1/1
MES, No. of protected animals/No. of used animals ([3]; dose 300 mg/kg b.w., 4 h): 1/1

Cc1cccc(Cl)c1OCC(=O)NCC(C)O (stereo not shown) [Compound 68, R,S-1N-[(2-chlor-6-methylphenoxy)acetyl]amino-2-propanol]
TOX, No. of animals exhibiting motor impairment/no. of used animals [1, 11]: 4/4
ScMet, No. of protected animals/No. of used animals ([5]; dose 300 mg/kg b.w., 0.5 h): 1/1
MES, No. of protected animals/No. of used animals ([3]; dose 300 mg/kg b.w., 0.5 h): 1/1
ED50 (MES, mice, i.p.) ([3]; i.p., time not given): 97.93 mg/kg b.w.
